Results reported in patent US8101761B2, “(E)-N-{3-[1-(8-fluoro-11H-10-OXA-1-AZA-dibenzo [A,D] cyclohepten-5ylidene)-propyl]-phenyl}-methanesulfonamide as glucocorticoid receptor modulator for the treatment of rheumatoid arthritis” (Eli Lilly and Company, priority 2008, dated 2012).

Biological target: T1, human glucocorticoid receptor (GR) (Homo sapiens, UniProt P04150)
T1 construct: expressed in transfected cells; host or cells: HEK293, transient transfection, CMV promoter plasmid
T1 sequence (P04150 1-777): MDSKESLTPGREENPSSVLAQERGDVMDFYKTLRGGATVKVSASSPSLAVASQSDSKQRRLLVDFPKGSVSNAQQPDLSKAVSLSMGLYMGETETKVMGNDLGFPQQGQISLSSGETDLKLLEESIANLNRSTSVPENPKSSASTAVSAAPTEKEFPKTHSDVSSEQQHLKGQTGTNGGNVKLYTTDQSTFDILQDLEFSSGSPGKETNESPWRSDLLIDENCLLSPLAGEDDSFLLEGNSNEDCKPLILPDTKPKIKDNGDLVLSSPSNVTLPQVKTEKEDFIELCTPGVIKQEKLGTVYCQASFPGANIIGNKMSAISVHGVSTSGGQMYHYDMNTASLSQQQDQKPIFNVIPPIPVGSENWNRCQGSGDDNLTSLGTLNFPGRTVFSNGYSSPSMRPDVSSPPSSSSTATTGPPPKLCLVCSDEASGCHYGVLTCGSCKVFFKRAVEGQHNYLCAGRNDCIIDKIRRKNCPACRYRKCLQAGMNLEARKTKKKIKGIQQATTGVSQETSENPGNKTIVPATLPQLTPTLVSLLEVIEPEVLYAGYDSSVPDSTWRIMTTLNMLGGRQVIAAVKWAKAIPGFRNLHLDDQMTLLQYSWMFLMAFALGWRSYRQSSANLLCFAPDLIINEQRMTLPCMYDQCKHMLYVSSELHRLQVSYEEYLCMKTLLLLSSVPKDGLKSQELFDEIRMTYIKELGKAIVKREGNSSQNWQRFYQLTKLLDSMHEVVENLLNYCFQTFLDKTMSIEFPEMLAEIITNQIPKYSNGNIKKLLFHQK
Assay: Nuclear hormone receptor functional modulation assay (GRE-luciferase reporter, HEK293), GR
Format: cell-based
Conditions: agonist mode, mean of n=4 or 5
Text: The solvents, reagents, and ligands employed in the functional assay are readily available from commercial sources, or can be prepared by one of ordinary skill in the art.
Human embryonic kidney HEK293 cells are transfected with steroid hormone receptor and reporter gene plasmids using Fugene™ transfection reagent. Briefly, the reporter plasmid containing two copies of probasin ARE and TK(thymidine kinase) promoter upstream of the luciferase reporter cDNA, is transfected into HEK293 cells with a plasmid constitutively expressing human androgen receptor (AR) using viral CMV(cytomegalovirus) promoter. The reporter plasmid containing two copies of GRE and TK promoter upstream of the luciferase reporter cDNA is transfected with a plasmid constitutively expressing either human glucocorticoid receptor (GR), human mineralocorticoid receptor (MR), or human progesterone receptor (PR) using viral CMV promoter. […] After 24-hours incubation with test compounds, cells are lysed and luciferase activity is determined using standard techniques.
Data are fitted to a four parameter-fit logistic curve fit to determine EC50 values. […] IC50 values may be determined similarly using antagonist mode assay data. Percent inhibitions may also be determined relative to the response in the presence of agonist alone, as described above.

efficacy in activating transcription, GR (relative to 100 nM dexamethasone): about 44% | EC50 (read-out: EC50 in activating transcription, GR): ~1.8 nM
Compound: CC/C(=C1\c2ccc(F)cc2OCc2ncccc21)c1cccc(NS(C)(=O)=O)c1 [Compound (I), (E)-N-{3-[1-(8-Fluoro-11H-10-oxa-1-aza-dibenzo[a,d]cyclohepten-5-ylidene)-propyl]-phenyl}-methanesulfonamide]
